Patent US11225462B2, “Crystal forms of oxypyridine amide derivative and preparation method therefor” (JIANGSU HENGRUI MEDICINE CO., LTD., priority 2018, dated 2022)

Key:
Format in all cases: physicochemical
[1] = Influencing factor experiments (light, high temperature, high humidity, 30 days); details: for Crystal form: day 5 to day 10, time not clear
Experimental: Crystal forms A, B, D and F of the compound of formula (I) were spread and left open to the air, and under conditions of high temperature (40° C. and 60° C.), light (4500 Lux), high humidity (RH 75% and RH 90%), the stability thereof were investigated for a period of 30 days.

[2] = DVS (dynamic vapor sorption) hygroscopicity characterization; details: for mass increase under normal conditions: 25° C. and 60% RH; for hygroscopicity according to guidelines for drug hygroscopicity test in China Pharmacopoeia (2015 edition) / mass increase as the humidity increases: 25° C., 10% RH to 80% RH; for mass increase under accelerated test conditions: 70% RH; for mass increase under extreme conditions: 90% RH; for desorption process and adsorption process of the sample: humidity change from 0% to 95%
Experimental: DVS refers to dynamic vapor sorption and is determined using SMS DVS Advantage at 25° C., with the humidity change of 50%-95%-0%-95%-50% and the stepping of 10% (5% for the last step) (the specific humidity range is determined in accordance with the corresponding plot, and the methods listed herein are those most commonly used), and the standard for determination is as follow: dm/dt is not more than 0.02%, and Tmax is not more than 360 min.

[3] = Long-term and accelerated stability experiments (3 months)
Experimental: The long-term (25° C., 60% RH) and accelerated (40° C., 75% RH) stability of crystal form A and crystal form F of the compound of formula (I) were investigated for 3 months.

CCC(=O)c1ccc(Cl)cc1-c1cc(=O)n([C@@H](CCOC(C)(C)C)C(=O)Nc2ccc(C(=O)O)cc2)cc1OC [Crystal form B, (S)-4-(4-(tert-butoxy)-2-(4-(5-chloro-2-propionylphenyl)-5-methoxy-2-oxopyridin-1(2H)-yl)butanamido)benzoic acid]
% Purity ([1]; 40° C., 15 days): 98.99%
Color and trait ([1]; 40° C., 15 days): Light yellow
% Purity ([1]; 40° C., 30 days): 98.57%
Color and trait ([1]; 40° C., 30 days): Light yellow
% Purity ([1]; 60° C., 15 days): 99.10%
Color and trait ([1]; 60° C., 15 days): Light yellow
% Purity ([1]; 60° C., 30 days): 98.60%
Color and trait ([1]; 60° C., 30 days): Light yellow
% Purity ([1]; 4500 Lux, 15 days): 99.01%
Color and trait ([1]; 4500 Lux, 15 days): Yellow solid
% Purity ([1]; 4500 Lux, 30 days): 98.71%
Color and trait ([1]; 4500 Lux, 30 days): Yellow solid
% Purity ([1]; Initial condition, day 0): 99.65%
Color and trait ([1]; Initial condition, day 0): Light yellow
% Purity ([1]; RH 75%, 15 days): 99.62%
% Weight gain ([1]; RH 75%, 15 days): 6.76%
Color and trait ([1]; RH 75%, 15 days): Light yellow
% Purity ([1]; RH 75%, 30 days): 99.59%
% Weight gain ([1]; RH 75%, 30 days): 8.34%
Color and trait ([1]; RH 75%, 30 days): Light yellow
% Purity ([1]; RH 90%, 15 days): 99.64%
% Weight gain ([1]; RH 90%, 15 days): 14.89%
Color and trait ([1]; RH 90%, 15 days): Light yellow
% Purity ([1]; RH 90%, 30 days): 99.56%
% Weight gain ([1]; RH 90%, 30 days): 19.11%
Color and trait ([1]; RH 90%, 30 days): Light yellow
mass increase under normal conditions [2]: about 1.155%
hygroscopicity according to guidelines for drug hygroscopicity test in China Pharmacopoeia (2015 edition) [2]: slightly hygroscopic (less than 2% but not less than 0.2%)
mass increase as the humidity increases [2]: about 1.968%
mass increase under accelerated test conditions [2]: about 1.530%
mass increase under extreme conditions [2]: about 3.963%
crystal form before and after DVS detection (XRPD comparison) [2]: change to crystal form A
desorption process and adsorption process of the sample [2]: basically coincide

CCC(=O)c1ccc(Cl)cc1-c1cc(=O)n([C@@H](CCOC(C)(C)C)C(=O)Nc2ccc(C(=O)O)cc2)cc1OC [Crystal form F, (S)-4-(4-(tert-butoxy)-2-(4-(5-chloro-2-propionylphenyl)-5-methoxy-2-oxopyridin-1(2H)-yl)butanamido)benzoic acid]
% Purity ([1]; 40° C., 5 days): 99.67%
% Purity ([1]; 40° C., 10 days): 99.62%
% Purity ([1]; 40° C., 30 days): 99.57%
% Purity ([1]; 60° C., 5 days): 99.68%
% Purity ([1]; 60° C., 10 days): 99.65%
% Purity ([1]; 60° C., 30 days): 99.59%
% Purity ([1]; 4500 Lux, 5 days): 99.66%
% Purity ([1]; 4500 Lux, 10 days): 99.64%
% Purity ([1]; 4500 Lux, 30 days): 99.64%
% Purity ([1]; Initial condition, day 0): 99.67%
% Purity ([1]; RH 75%, 5 days): 99.65%
% Weight gain ([1]; RH 75%, 5 days): 5.23%
% Purity ([1]; RH 75%, 10 days): 99.63%
% Weight gain ([1]; RH 75%, 10 days): 5.34%
% Purity ([1]; RH 75%, 30 days): 99.62%
% Weight gain ([1]; RH 75%, 30 days): 10.03%
% Purity ([1]; RH 90%, 5 days): 99.66%
% Weight gain ([1]; RH 90%, 5 days): 7.26%
% Purity ([1]; RH 90%, 10 days): 99.63%
% Weight gain ([1]; RH 90%, 10 days): 8.40%
% Purity ([1]; RH 90%, 30 days): 99.65%
% Weight gain ([1]; RH 90%, 30 days): 12.83%
physical and chemical stability (conclusion) ([1]; light, 40° C., 60° C., 75% RH or 90% RH for 30 days): good physical and chemical stability
% Purity 1 month ([3]; 25° C., 60% RH): 99.68%
% Purity 2 months ([3]; 25° C., 60% RH): 99.65%
% Purity 3 months ([3]; 25° C., 60% RH): 99.65%
% Purity Initial condition ([3]; 25° C., 60% RH): 99.69%
% Purity 1 month ([3]; 40° C., 75% RH): 99.68%
% Purity 2 months ([3]; 40° C., 75% RH): 99.67%
% Purity 3 months ([3]; 40° C., 75% RH): 99.66%
% Purity Initial condition ([3]; 40° C., 75% RH): 99.69%
physical and chemical stability (conclusion) ([3]; long-term (25° C., 60% RH) and accelerated (40° C., 75% RH) conditions for 3 months): good physical and chemical stability
mass increase under normal conditions [2]: about 0.0457%
hygroscopicity according to guidelines for drug hygroscopicity test in China Pharmacopoeia (2015 edition) [2]: hardly hygroscopic (less than 2%)
mass increase as the humidity increases [2]: about 0.1464%
mass increase under accelerated test conditions [2]: about 0.0701%
mass increase under extreme conditions [2]: about 0.2744%
crystal form before and after DVS detection (XRPD comparison) [2]: unchanged
desorption process and adsorption process of the sample [2]: basically coincide

CCC(=O)c1ccc(Cl)cc1-c1cc(=O)n([C@@H](CCOC(C)(C)C)C(=O)Nc2ccc(C(=O)O)cc2)cc1OC [Crystal form D, (S)-4-(4-(tert-butoxy)-2-(4-(5-chloro-2-propionylphenyl)-5-methoxy-2-oxopyridin-1(2H)-yl)butanamido)benzoic acid]
% Purity ([1]; 40° C., 5 days): 99.53%
Color and trait ([1]; 40° C., 5 days): Off-white
% Purity ([1]; 40° C., 10 days): 99.02%
Color and trait ([1]; 40° C., 10 days): Off-white
% Purity ([1]; 40° C., 30 days): 98.95%
Color and trait ([1]; 40° C., 30 days): Off-white
Crystal form ([1]; 40° C.): Amor-
% Purity ([1]; 60° C., 5 days): 99.40%
Color and trait ([1]; 60° C., 5 days): Off-white
% Purity ([1]; 60° C., 10 days): 99.31%
Color and trait ([1]; 60° C., 10 days): Off-white
% Purity ([1]; 60° C., 30 days): 99.09%
Color and trait ([1]; 60° C., 30 days): Off-white
Crystal form ([1]; 60° C.): Amor-
% Purity ([1]; 4500 Lux, 5 days): 99.58%
Color and trait ([1]; 4500 Lux, 5 days): Off-white
% Purity ([1]; 4500 Lux, 10 days): 99.57%
Color and trait ([1]; 4500 Lux, 10 days): Off-white
% Purity ([1]; 4500 Lux, 30 days): 99.26%
Color and trait ([1]; 4500 Lux, 30 days): Off-white
Crystal form ([1]; 4500 Lux): Amor-
% Purity ([1]; Initial condition, day 0): 99.59%
Color and trait ([1]; Initial condition, day 0): Off-white
% Purity ([1]; RH 75%, 5 days): 99.56%
% Weight gain ([1]; RH 75%, 5 days): 5.30%
Color and trait ([1]; RH 75%, 5 days): Off-white
% Purity ([1]; RH 75%, 10 days): 99.53%
% Weight gain ([1]; RH 75%, 10 days): 5.48%
Color and trait ([1]; RH 75%, 10 days): Off-white
% Purity ([1]; RH 75%, 30 days): 99.55%
% Weight gain ([1]; RH 75%, 30 days): 5.56%
Color and trait ([1]; RH 75%, 30 days): Off-white
Crystal form ([1]; RH 75%): Amor-
% Purity ([1]; RH 90%, 5 days): 99.57%
% Weight gain ([1]; RH 90%, 5 days): 7.45%
Color and trait ([1]; RH 90%, 5 days): Off-white
% Purity ([1]; RH 90%, 10 days): 99.54%
% Weight gain ([1]; RH 90%, 10 days): 8.67%
Color and trait ([1]; RH 90%, 10 days): Off-white
% Purity ([1]; RH 90%, 30 days): 99.55%
% Weight gain ([1]; RH 90%, 30 days): 9.53%
Color and trait ([1]; RH 90%, 30 days): Off-white
Crystal form ([1]; RH 90%): Amor-
mass increase under normal conditions [2]: about 2.143%
hygroscopicity according to guidelines for drug hygroscopicity test in China Pharmacopoeia (2015 edition) [2]: hygroscopic (less than 15% but not less than 2%)
mass increase as the humidity increases [2]: about 2.420%
mass increase under accelerated test conditions [2]: about 2.494%
mass increase under extreme conditions [2]: about 3.422%
crystal form before and after DVS detection (XRPD comparison) [2]: crystallinity of the crystal form become worse
desorption process and adsorption process of the sample [2]: do not coincide
